Results reported in article PMC5642494 (Oncotarget, 2017).

Key:
[1] = tested on: MCF7 cells; assay: BrdU incorporation ELISA in MCF7; format: cell-based; details: Homo sapiens, 3 DT
Experimental: Relative IC50/EC50 values were determined by curve fitting to a four parameter logistic equation: Y = bottom + ((top-bottom)/ (1+exp(HillSlope*(X – LnIC50)), where X is the natural log of dose/concentration, Y is response, decreasing as X increases, top and bottom are plateaus in the same units as Y, lnIC50 is the natural log of potency, in the same log units as X, and HillSlope measures the steepness of the curve. Data were plotted using GraphPad Prism.
After treatment, an ELISA for BrdU detection was performed (Roche, Cat. No. 11 669 915 001) following the vendor’s manual. Envision® (PerKinElmer) was used to measure the light emission of the samples and raw data were processed with Microsoft Excel and relative EC50 values were determined as described above. For normalization, the mean value obtained from cells treated with 2 µM […] doxorubicin (Sigma #D1515) was set as the minimum, and that obtained from treatment with the vehicle (0.2% DMSO) was set as the maximum.

[2] = tested on: HR+ and HR- breast cancer cell lines; assay: Proliferation after washouts (EdU Click-iT) in breast cancer lines; format: cell-based, human
Experimental: Images were SA-β-galactosidase immunocytochemical labeling taken by fluorescent microscopy using a Leica DMiL. […] SA-β-gal Cell samples were lysed after treatment with expression was determined using the Senescence Cells 100 μL lysis buffer and transferred to a 96-well plate. Histochemical Staining Kit (Sigma, CS0030) following 30 μL of each sample were transferred into deep well the vendor 's manual. Images were taken at 100x by bright plates using TECAN-EVO Workstation. Samples were field microscopy (Leica DMiL). treated for derivatization of the metabolites of interest and internal standards. For this, 50 μL of derivatization reagent Proliferation studies after washouts (EdU Click- and 80 μL of internal standard (IS, SupplementaryTable iT®) 1), were added with multidrop, plates were vortexed for 5 mins and let sit for one hour at 4 °C. The IS used were the Cells were plated onto poly-D-lysine D or 13C-labeled commercial analogues of nine of the ten coated 96-well plates at a density of 2,000-6,000 metabolites, prepared at 25 μM in water (Supplementary viable cells per well, and treated with abemaciblib or Table 1). The derivatization reagents (from Sigma), […] washout schedule shown on Supplementary Figure 1A. […] EdU Samples were analyzed by LC-MS/MS under the detection was performed using the Click-iT High Content conditions described below. […] Cell images were captured using a Cellomics Arrayscan VTI and analyzed Analysis of the derivatized-extracted samples with the Target Activation bio-application V.3 reading in 4 was carried out with an Agilent 6460 Triple Quadrupole channels at a magnification of 10X. […] The software relative levels and sub-cellular localization of EdU were for data collection and treatment was Agilent Masshunter determined through the respective intensities and locations Workstation. Mobile phases for chromatography were: of Alexa-488 fluorescence. mobile phase A: formic acid (5 mM) and ammonium formate (10 mM) in water; mobile phase B: acetonitrile. […]

[3] = tested on: MCF7 cells; assay: SA-β-gal immunofluorescence (senescence), MCF7; format: cell-based, human
Experimental: After treatment, cells were fixed, washed with PBS, permeabilized and β-gal was detected using anti-β-galactosidase antibody; for multiplexed assays, TUNEL staining was carried out using Roche TUNEL reagents as indicated above. Nuclei were also stained with PI for total cell counting. Plates were read in an Acumen Explorer Ex3 (TTP Labtech) and raw data were analyzed with Cellista software. Outputs were expressed as percentages of each identified subpopulation 1) positive β-gal, and 2) total cell number. The percentages of β-gal positive cells, TUNEL positive cells, and cell numbers were plotted in Microsoft Excel.

EC50 [1]: 178 nM
SMILES: CCN1CCN(Cc2ccc(Nc3ncc(F)c(-c4cc(F)c5nc(C)n(C(C)C)c5c4)n3)nc2)CC1 [abemaciclib, Abemaciclib]
DNA synthesis / proliferation as measured by EdU incorporation ([2]; HR+ versus HR- breast cancer cell lines, exposure 2 hr, 24 hr or 72 hrs followed by washout): preferentially reduced in HR+ compared to HR- cell lines
sensitivity of HR- cell lines with RB1 mutation or loss (EdU incorporation) ([2]; MDA-MB-468, BT549, BT20, HCC1937, HCC70): insensitive
% β-gal Positive MCF7 Cells ([3]; 0.5 µM, 4 days): 16.15 ± 1.48%
% β-gal Positive MCF7 Cells ([3]; 0.5 µM, 7 days): 16.25 ± 0.35%
% β-gal Positive MCF7 Cells ([3]; 0.5 µM, 10 days): 19.7 ± 1.83%
% β-gal Positive MCF7 Cells ([3]; 2 µM, 4 days): 42.45 ± 5.86%
% β-gal Positive MCF7 Cells ([3]; 2 µM, 7 days): 55.4 ± 18.8%
% β-gal Positive MCF7 Cells ([3]; 2 µM, 10 days): 30.85 ± 3.46%
